# Numbered stars: 1 amine (or outer) side, 2 acyl side, 3 side chain; on linkers, the order of the positions; unused ones are H or OH. Bridge positions count the residues as written; N and C are the ends. Square brackets hold non-standard residues; d marks the D form. Peptide text beside a SMILES is read from it. * marks the point of attachment. ξ: configuration not given here. Bip(4'-COOH) = N[C@@H](Cc1ccc(-c2ccc(C(=O)O)cc2)cc1)C(=O)O; Bip(4'-NHAc) = CC(=O)Nc1ccc(-c2ccc(C[C@H](N)C(=O)O)cc2)cc1; X52 = Nc1ccc(-c2ccc(C[C@H](N[*:1])C(=O)[*:2])cc2)cn1; Phe(3-CF3) = N[C@@H](Cc1cccc(C(F)(F)F)c1)C(=O)O; Ala(morpholin-4-yl) = N[C@@H](CN1CCOCC1)C(=O)O; Phe(4-CONH2) = NC(=O)c1ccc(C[C@H](N)C(=O)O)cc1; Phe(4-COOH) = N[C@@H](Cc1ccc(C(=O)O)cc1)C(=O)O; Bip = N[C@@H](Cc1ccc(-c2ccccc2)cc1)C(=O)O; Phe(3-NH2) = Nc1cccc(C[C@H](N)C(=O)O)c1; Phe(3-Me) = Cc1cccc(C[C@H](N)C(=O)O)c1; Abu(3S-NH2) = C[C@H](N)[C@H](N)C(=O)O; Val(3-OH) = CC(C)(O)[C@H](N)C(=O)O; X11 = CC(N)[C@H](N[*:1])C(=O)[*:2]; hPhe = N[C@@H](CCc1ccccc1)C(=O)O; Cha = N[C@@H](CC1CCCCC1)C(=O)O; Thr(3ξ) = CC(O)[C@H](N)C(=O)O; Suc = O=C(CCC(=O)[*:2])[*:1]; Propanoyl(3-OH) = O=C(CCO)*; Carboxymethyl = O=C(O)C*; NMeA = CN[C@@H](C)C(=O)O; Orn = NCCC[C@H](N)C(=O)O; Dab = NCC[C@H](N)C(=O)O; Dap = NC[C@H](N)C(=O)O
# Target: T1, Alexa fluor-647 labeled human PD-L1-Ig binding to Jurkat cell line over-expressing human PD-1 (Homo sapiens, UniProt Q15116)
# T1 construct: expressed in transfected cells; host or cells: Jurkat
# Experiment: Jurkat-PD-1 Cell Binding High-Content Screening Assay (CBA): Method 3 (Alexa fluor-647 labeled PD-L1-Ig)
# Details: Jurkat-PD-1 cells, Alexa fluor-647 labeled PD-L1-Ig 177 nM; head μM; read-out: CBA Method 3 μM
# Method in brief: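 Jurkat cells over-expressing human PD-1 in RPMI/10% FCS were preincubated 2 h at 37 °C with compound, then exposed 1 h to Alexa fluor-647 labeled human PD-L1-Ig (177 nM final). Cells fixed in 4% paraformaldehyde with Hoechst 33342 and binding quantified by high-content imaging.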
# T1 sequence (Q15116 25-288): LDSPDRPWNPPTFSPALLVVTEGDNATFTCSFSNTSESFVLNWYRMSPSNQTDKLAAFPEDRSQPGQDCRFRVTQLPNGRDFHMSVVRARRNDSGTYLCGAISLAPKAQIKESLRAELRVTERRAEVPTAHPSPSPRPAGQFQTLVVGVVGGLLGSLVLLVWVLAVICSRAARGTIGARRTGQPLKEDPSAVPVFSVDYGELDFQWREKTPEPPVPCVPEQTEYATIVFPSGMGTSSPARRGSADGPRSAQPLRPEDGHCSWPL
row,SMILES,IC50 [µM]
1,CC(C)C[C@@H]1NC(=O)[C@H](Cc2c[nH]c3ccccc23)NC(=O)[C@H](CC(=O)O)NC(=O)[C@H](Cc2ccc(C(=O)O)cc2)NC(=O)[C@H](Cc2ccc(OCC(=O)O)cc2)NC(=O)CSC[C@@H](C(=O)N[C@@H](CCCN)C(N)=O)NC(=O)[C@H](C(C)C)NC(=O)[C@H]([C@@H](C)O)NC(=O)[C@H](CC2CCCCC2)NC(=O)[C@H](CCN)NC(=O)[C@@H](CC(C)C)NC(=O)[C@H](C)N(C)C(=O)[C@H](C(C)C)NC(=O)[C@H](Cc2ccc(-c3ccccc3)cc2)NC1=O [Example 5140] ({CH2CO}-Y(Carboxymethyl)[Phe(4-COOH)]DWL[Bip]V[NMeA][dL][Dab][Cha]TVC[Orn]-NH2; thioether N-14),0.01
2,Cc1cccc(C[C@@H]2NC(=O)[C@H](CC(=O)O)NC(=O)[C@H](Cc3ccc(OCC(=O)O)cc3)NC(=O)[C@H](CN3CCOCC3)NC(=O)CSC[C@@H](C(=O)N[C@@H](CCN)C(N)=O)NC(=O)[C@H](CCCN)NC(=O)[C@H](C(C)C)NC(=O)[C@H](CC3CCCCC3)NC(=O)[C@H](CCN)NC(=O)[C@@H](CC(C)C)NC(=O)[C@H](C)N(C)C(=O)[C@H](CCC(N)=O)NC(=O)[C@H](Cc3ccc(-c4ccccc4)cc3)NC(=O)[C@H](Cc3ccc(-c4ccc(N)nc4)cc3)NC2=O)c1 [Example 5104] ({CH2CO}-[Ala(morpholin-4-yl)]Y(Carboxymethyl)D[Phe(3-Me)][X52][Bip]Q[NMeA][dL][Dab][Cha]V[Orn]C[Dab]-NH2; thioether N-14),0.05
3,Cc1cccc(C[C@@H]2NC(=O)[C@H](CC(=O)O)NC(=O)[C@H](Cc3ccc(OCC(=O)O)cc3)NC(=O)[C@H](CC3CCCCC3)NC(=O)CSC[C@@H](C(=O)N[C@@H](CCN)C(N)=O)NC(=O)[C@H](CCCN)NC(=O)[C@H](C(C)C)NC(=O)[C@H](Cc3cccc(N)c3)NC(=O)[C@H](CCN)NC(=O)[C@@H](CC(C)C)NC(=O)[C@H](C)N(C)C(=O)[C@H](CCC(N)=O)NC(=O)[C@H](Cc3ccc(-c4ccccc4)cc3)NC(=O)[C@H](Cc3ccc(C(=O)O)cc3)NC2=O)c1 [Example 5190] ({CH2CO}-[Cha]Y(Carboxymethyl)D[Phe(3-Me)][Phe(4-COOH)][Bip]Q[NMeA][dL][Dab][Phe(3-NH2)]V[Orn]C[Dab]-NH2; thioether N-14),0.02
4,Cc1cccc(C[C@@H]2NC(=O)[C@H](CC(=O)O)NC(=O)[C@H](Cc3ccc(C(=O)O)cc3)NC(=O)[C@H]([C@H](C)N)NC(=O)CSC[C@@H](C(=O)N[C@@H](CCN)C(N)=O)NC(=O)[C@H](CCC(N)=O)NC(=O)[C@H](C(C)C)NC(=O)[C@H](CC3CCCCC3)NC(=O)[C@H](CCN)NC(=O)[C@@H](CC(C)C)NC(=O)[C@H](C)N(C)C(=O)[C@H](Cc3ccc(C(N)=O)cc3)NC(=O)[C@H](Cc3ccc(-c4ccccc4)cc3)NC(=O)[C@H](Cc3ccc(OCC(=O)O)cc3)NC2=O)c1 [Example 5119] ({CH2CO}-[Abu(3S-NH2)][Phe(4-COOH)]D[Phe(3-Me)]Y(Carboxymethyl)[Bip][Phe(4-CONH2)][NMeA][dL][Dab][Cha]VQC[Dab]-NH2; thioether N-14),0.02
5,Cc1cccc(C[C@@H]2NC(=O)[C@H](CC(=O)O)NC(=O)[C@H](Cc3ccc(OCC(=O)O)cc3)NC(=O)[C@H](CC3CCCCC3)NC(=O)CSC[C@@H](C(=O)N[C@@H](CCN)C(N)=O)NC(=O)[C@H](Cc3cnc[nH]3)NC(=O)[C@H](C(C)(C)O)NC(=O)[C@H](CC3CCCCC3)NC(=O)[C@H](CCN)NC(=O)[C@@H](CC(C)C)NC(=O)[C@H](C)N(C)C(=O)[C@H](CCC(N)=O)NC(=O)[C@H](Cc3ccc(-c4ccccc4)cc3)NC(=O)[C@H](CCc3ccccc3)NC2=O)c1 [Example 5277] ({CH2CO}-[Cha]Y(Carboxymethyl)D[Phe(3-Me)][hPhe][Bip]Q[NMeA][dL][Dab][Cha][Val(3-OH)]HC[Dab]-NH2; thioether N-14),0.03

# Same assay, conditions: Jurkat-PD-1 cells, Alexa fluor-647 labeled PD-L1-Ig 177 nM; nM; read-out: CBA Method 3
row,SMILES,IC50 [µM]
1,CC(=O)Nc1ccc(-c2ccc(C[C@@H]3NC(=O)[C@H](Cc4cccc(C(F)(F)F)c4)NC(=O)[C@H](CC(=O)O)NC(=O)[C@H](Cc4ccc(C(=O)O)cc4)NC(=O)[C@H](C(C)N)NC(=O)CSC[C@@H](C(=O)N[C@@H](CCN)C(N)=O)NC(=O)[C@H](CNC(=O)CCO)NC(=O)[C@H](C(C)C)NC(=O)[C@H](CC4CCCCC4)NC(=O)[C@H](CCN)NC(=O)[C@@H](CC(C)C)NC(=O)[C@H](C)N(C)C(=O)[C@H](Cc4ccc(C(N)=O)cc4)NC(=O)[C@H](Cc4ccc(-c5ccccc5)cc4)NC3=O)cc2)cc1 (stereo partly drawn) [Example 5148] ({CH2CO}-[X11][Phe(4-COOH)]D[Phe(3-CF3)][Bip(4'-NHAc)][Bip][Phe(4-CONH2)][NMeA][dL][Dab][Cha]V[Dap](Propanoyl(3-OH))C[Dab]-NH2; thioether N-14),0.0009
2,CC(C)C[C@H]1NC(=O)[C@H](C)N(C)C(=O)[C@H](Cc2ccc(C(=O)O)cc2)NC(=O)[C@H](Cc2ccc(-c3ccccc3)cc2)NC(=O)[C@H](Cc2ccc(C(=O)O)cc2)NC(=O)[C@H](Cc2cccc(C(F)(F)F)c2)NC(=O)[C@H](CC(=O)O)NC(=O)[C@H](Cc2ccc(C(=O)O)cc2)NC(=O)[C@H](CC2CCCCC2)NC(=O)CSC[C@@H](C(=O)N[C@@H](CCN)C(N)=O)NC(=O)[C@H](CNC(=O)CCC(=O)O)NC(=O)[C@H](C(C)C)NC(=O)[C@H](CC2CCCCC2)NC(=O)[C@H](CCN)NC1=O [Example 5228] ({CH2CO}-[Cha][Phe(4-COOH)]D[Phe(3-CF3)][Phe(4-COOH)][Bip][Phe(4-COOH)][NMeA][dL][Dab][Cha]V[Dap](Suc)C[Dab]-NH2; thioether N-14),0.0008
3,Cc1cccc(C[C@@H]2NC(=O)[C@H](CC(=O)O)NC(=O)[C@H](Cc3ccc(OCC(=O)O)cc3)NC(=O)[C@H](CCN)NC(=O)CSC[C@@H](C(=O)N[C@@H](CCN)C(N)=O)NC(=O)[C@H](CCCN)NC(=O)[C@H](C(C)C)NC(=O)[C@H](CC3CCCCC3)NC(=O)[C@H](CCN)NC(=O)[C@@H](CC(C)C)NC(=O)[C@H](C)N(C)C(=O)[C@H](CCC(N)=O)NC(=O)[C@H](Cc3ccc(-c4ccccc4)cc3)NC(=O)[C@H](Cc3ccc(C(=O)O)cc3)NC2=O)c1 [Example 5179] ({CH2CO}-[Dab]Y(Carboxymethyl)D[Phe(3-Me)][Phe(4-COOH)][Bip]Q[NMeA][dL][Dab][Cha]V[Orn]C[Dab]-NH2; thioether N-14),0.0039
4,Cc1cccc(C[C@@H]2NC(=O)[C@H](CC(=O)O)NC(=O)[C@H](Cc3ccc(-c4ccc(C(=O)O)cc4)cc3)NC(=O)[C@H](CN3CCOCC3)NC(=O)CSC[C@@H](C(=O)N[C@@H](CCN)C(N)=O)NC(=O)[C@H](CCC(=O)O)NC(=O)[C@H](C(C)C)NC(=O)[C@H](CC(C)C)NC(=O)[C@H](CC(N)=O)NC(=O)[C@@H](CC(C)C)NC(=O)[C@H](C)N(C)C(=O)[C@H](C(C)C)NC(=O)[C@H](Cc3ccc(-c4ccccc4)cc3)NC(=O)[C@H](CC(C)C)NC2=O)c1 [Example 5125] ({CH2CO}-[Ala(morpholin-4-yl)][Bip(4'-COOH)]D[Phe(3-Me)]L[Bip]V[NMeA][dL]NLVEC[Dab]-NH2; thioether N-14),0.0094
5,CC(C)C[C@H]1NC(=O)[C@H](C)N(C)C(=O)[C@H](Cc2ccc(OCC(=O)O)cc2)NC(=O)[C@H](Cc2ccc(-c3ccccc3)cc2)NC(=O)[C@H](Cc2ccc(C(=O)O)cc2)NC(=O)[C@H](Cc2cccc(C(F)(F)F)c2)NC(=O)[C@H](CC(=O)O)NC(=O)[C@H](Cc2ccc(OCC(=O)O)cc2)NC(=O)[C@H](C(C)O)NC(=O)CSC[C@@H](C(=O)N[C@@H](CCN)C(N)=O)NC(=O)[C@H]([C@@H](C)O)NC(=O)[C@H](C(C)C)NC(=O)[C@H](CC2CCCCC2)NC(=O)[C@H](CCN)NC1=O (stereo partly drawn) [Example 5143] ({CH2CO}-[Thr(3ξ)]Y(Carboxymethyl)D[Phe(3-CF3)][Phe(4-COOH)][Bip]Y(Carboxymethyl)[NMeA][dL][Dab][Cha]VTC[Dab]-NH2; thioether N-14),0.007
6,Cc1cccc(C[C@@H]2NC(=O)[C@H](CC(=O)O)NC(=O)[C@H](Cc3ccc(OCC(=O)O)cc3)NC(=O)[C@H](CCCNC(=N)N)NC(=O)CSC[C@@H](C(=O)N[C@@H](CCN)C(N)=O)NC(=O)[C@H](CCCN)NC(=O)[C@H](C(C)C)NC(=O)[C@H](CC3CCCCC3)NC(=O)[C@H](CCN)NC(=O)[C@@H](CC(C)C)NC(=O)[C@H](C)N(C)C(=O)[C@H](CCC(N)=O)NC(=O)[C@H](Cc3ccc(-c4ccccc4)cc3)NC(=O)[C@H](Cc3ccc(C(=O)O)cc3)NC2=O)c1 [Example 5183] ({CH2CO}-RY(Carboxymethyl)D[Phe(3-Me)][Phe(4-COOH)][Bip]Q[NMeA][dL][Dab][Cha]V[Orn]C[Dab]-NH2; thioether N-14),0.0023
7,Cc1cccc(C[C@@H]2NC(=O)[C@H](CC(=O)O)NC(=O)[C@H](Cc3ccc(OCC(=O)O)cc3)NC(=O)[C@H](Cc3ccccc3)NC(=O)CSC[C@@H](C(=O)N[C@@H](CCN)C(N)=O)NC(=O)[C@H](CCCN)NC(=O)[C@H](C(C)C)NC(=O)[C@H](CC3CCCCC3)NC(=O)[C@H](CCN)NC(=O)[C@@H](CC(C)C)NC(=O)[C@H](C)N(C)C(=O)[C@H](CCC(N)=O)NC(=O)[C@H](Cc3ccc(-c4ccccc4)cc3)NC(=O)[C@H](Cc3ccc(C(=O)O)cc3)NC2=O)c1 [Example 5267] ({CH2CO}-FY(Carboxymethyl)D[Phe(3-Me)][Phe(4-COOH)][Bip]Q[NMeA][dL][Dab][Cha]V[Orn]C[Dab]-NH2; thioether N-14),0.0012
8,CC(=O)Nc1ccc(-c2ccc(C[C@@H]3NC(=O)[C@H](Cc4cccc(C(F)(F)F)c4)NC(=O)[C@H](CC(=O)O)NC(=O)[C@H](Cc4ccc(C(=O)O)cc4)NC(=O)[C@H]([C@H](C)N)NC(=O)CSC[C@@H](C(=O)N[C@@H](CCN)C(N)=O)NC(=O)[C@H](CCC(=O)O)NC(=O)[C@H](C(C)C)NC(=O)[C@H](CC4CCCCC4)NC(=O)[C@H](CCN)NC(=O)[C@@H](CC(C)C)NC(=O)[C@H](C)N(C)C(=O)[C@H](Cc4ccc(C(N)=O)cc4)NC(=O)[C@H](Cc4ccc(-c5ccccc5)cc4)NC3=O)cc2)cc1 [Example 5118] ({CH2CO}-[Abu(3S-NH2)][Phe(4-COOH)]D[Phe(3-CF3)][Bip(4'-NHAc)][Bip][Phe(4-CONH2)][NMeA][dL][Dab][Cha]VEC[Dab]-NH2; thioether N-14),0.0017
